US4588726A, “1-cyclopropyl-6-fluoro-1 ,4-dihydro-4-oxo-7-(3-oxo-1-piperazinyl)-3-quinolinecarboxylic acid antibacterial agents” (Bayer Aktiengesellschaft, priority 1984, dated 1986)
Converted amounts (≈) assume the structure as drawn.

Legend:
[1] = test system: Staph. 1756; assay: MIC of the compound of Example 1 compared with norfloxacin, Staph. 1756; assay type: cell-based; conditions: Staphylococcus
Text: (§1) Tables 1 and 2 below show examples of the MIC values of the compound of Example 1 compared with norfloxacin.

[2] = test system: Staph. 25151; assay: Microtitre assay/urine, MIC, Staph. 25151; assay type: cell-based; conditions: Staphylococcus
Text: as §1
(§2) Microtitre assay/urine (80% pooled human urine,
(§3) 20% isosensitest medium)

[3] = test system: Staph. 133; assay: MIC of the compound of Example 1 compared with norfloxacin, Staph. 133; assay type: cell-based; conditions: Staphylococcus
Text: as §1

[4] = test system: Staph.aur. FK 422; assay: MIC of the compound of Example 1 compared with norfloxacin, Staph.aur. FK 422; assay type: cell-based; conditions: Staphylococcus aureus
Text: as §1

[5] = test system: E. coli C14; assay: Microtitre assay/urine, MIC, E. coli C14; assay type: cell-based; conditions: Escherichia coli
Text: as §1, §2, §3

[6] = test system: Gram-positive and Gram-negative organisms; conditions: J. Med. Chem. 23, 1358 (1980); cited from earlier work
[7] = pH 7.1, Staph. 25151, head prints only pH 7.1
[8] = pH 7.1, Staph. 25151, urine pH 7.1, 80% pooled human urine, 20% isosensitest medium
[9] = C14, pH 7.1, E. coli C14, head prints only pH 7.1
[10] = C14, pH 7.1, E. coli C14, urine pH 7.1, 80% pooled human urine, 20% isosensitest medium

Row | SMILES | MIC [1] [µg/mL] | MIC [2, 7] [µg/mL] | MIC [2, 8] [µg/mL] | MIC [3] [µg/mL] | MIC [4] [µg/mL] | MIC [5, 9] [µg/mL] | MIC [5, 10] [µg/mL] | antibacterial properties [6]
1 | O=C1CN(c2cc3c(cc2F)c(=O)c(C(=O)O)cn3C2CC2)CCN1 [Example 1, 1-cyclopropyl-6-fluoro-1,4-dihydro-4-oxo-7-(3-oxo-1-piperazinyl)-3-quinolinecarboxylic acid] | 0.25 | 0.5 (≈ 1.45 µM) | 0.25 (≈ 0.724 µM) | 0.5 | 0.5 | 0.25 (≈ 0.724 µM) | 0.25 (≈ 0.724 µM) | 
2 | CCn1cc(C(=O)O)c(=O)c2cc(F)c(N3CCNCC3)cc21 [Norfloxacin, 1-ethyl-6-fluoro-1,4-dihydro-4-oxo-7-(1-piperazinyl)-3-quinolinecarboxylicacid] | 2 | 4 (≈ 12.5 µM) | 4 (≈ 12.5 µM) | 1 | 2 | 0.5 (≈ 1.57 µM) | 4 (≈ 12.5 µM) | has antibacterial properties
